From ChEMBL document CHEMBL3886657, “Imidazopyridin-2-one derivatives” (2016)

Molecular target: Metabotropic glutamate receptor 2 (Homo sapiens, UniProt Q14416)
Test: [35S]-GTPγS Assay: The stimulation of [35S]-GTPγS binding is a common functional assay to monitor Gαi-coupled receptor in native and recombinant receptor membrane preparation. Membrane from cells stably expressing hmGlu2 CHO-K1 (50 μg) are incubated in a 96 well plate for 1 hour in the presence of GTPγS35 (0.05 nM), GDP (5 μM) and compounds. The reaction is stopped by rapid filtration over Unifilter GF/B plate (Packard, Bioscience, Meriden Conn.) using a 96-well cell harvester (Brandel Gaithersburg, Md.). The filter plates are counted using Topcount counter (Packard, Bioscience, Meriden Conn., USA). When compounds are evaluated as potentiators they are tested in the presence of glutamate (1 μM).

Chain of Metabotropic glutamate receptor 2 (Q14416 whole entry): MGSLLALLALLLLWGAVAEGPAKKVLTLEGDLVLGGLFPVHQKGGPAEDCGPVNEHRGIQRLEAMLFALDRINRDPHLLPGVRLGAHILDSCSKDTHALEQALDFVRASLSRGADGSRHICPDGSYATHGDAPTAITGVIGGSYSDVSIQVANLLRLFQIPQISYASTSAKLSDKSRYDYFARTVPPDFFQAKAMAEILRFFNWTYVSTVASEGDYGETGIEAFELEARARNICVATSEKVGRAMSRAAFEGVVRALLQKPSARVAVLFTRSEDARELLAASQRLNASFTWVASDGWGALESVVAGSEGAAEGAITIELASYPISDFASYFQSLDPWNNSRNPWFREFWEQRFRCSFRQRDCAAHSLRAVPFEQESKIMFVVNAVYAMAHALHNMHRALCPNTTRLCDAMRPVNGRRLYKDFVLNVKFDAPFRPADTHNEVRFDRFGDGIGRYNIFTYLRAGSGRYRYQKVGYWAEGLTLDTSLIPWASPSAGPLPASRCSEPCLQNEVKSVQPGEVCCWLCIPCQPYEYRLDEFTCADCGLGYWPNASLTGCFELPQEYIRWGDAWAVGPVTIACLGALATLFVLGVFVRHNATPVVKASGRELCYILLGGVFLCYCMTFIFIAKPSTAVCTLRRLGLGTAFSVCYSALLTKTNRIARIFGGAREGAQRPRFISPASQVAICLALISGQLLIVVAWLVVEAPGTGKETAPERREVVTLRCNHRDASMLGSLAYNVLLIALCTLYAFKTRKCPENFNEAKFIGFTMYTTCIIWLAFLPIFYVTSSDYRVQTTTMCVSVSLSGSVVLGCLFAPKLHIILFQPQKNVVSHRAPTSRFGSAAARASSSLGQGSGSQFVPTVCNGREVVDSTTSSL

Row | SMILES | EC50 [nM]
1 | Cn1c(=O)n(CC(C)(C)C)c2ccc(C3=CC4CCC3CN4C(=O)C3CC3)nc21 (configuration not stated) | 215
2 | Cn1c(=O)n(CC(C)(C)C)c2ccc(C3=CC4CCC3CN4C(=O)c3ncco3)nc21 (configuration not stated) | 17.9
3 | Cn1c(=O)n(CC2CC2(F)F)c2ccc(C3=CC4CCC3CN4C(=O)c3ccon3)nc21 (configuration not stated) | 26.6
4 | CC1C(c2ccc3c(n2)N(C)S(=O)(=O)N3CC2CC2(F)F)C1C(C)(C)O (configuration not stated) | 40.6
5 | Cn1c(=O)n(CC(C)(C)C)c2ccc(C3=CC4CCC3CN4C(=O)c3csnn3)nc21 (configuration not stated) | 69.3
6 | Cn1c(=O)n(CC(C)(C)C)c2ccc(C3=CC4CN(C(=O)CO)CC4C3)nc21 (configuration not stated) | 2820
7 | Cn1c(=O)n(CC2CC2(F)F)c2ccc(C3=CC4CN(C(=O)c5ncco5)CC4C3)nc21 (configuration not stated) | 248
8 | Cn1c(=O)n(CC(C)(C)C)c2ccc(C3=CC4CN(C(=O)c5ncco5)CC4C3)nc21 (configuration not stated) | 54.7
9 | Cn1c(=O)n(CC(C)(C)C)c2ccc(C3=CC4CCC3CN4C(=O)Cn3cncn3)nc21 (configuration not stated) | 115
10 | CN1c2nc(C3=CC4CN(C(=O)C(C)(C)O)CC4C3)ccc2N(CC2CC2(F)F)S1(=O)=O (configuration not stated) | 88.6
11 | Cn1c(=O)n(CC(C)(C)C)c2ccc(C3=CC4CN(C(=O)C5(O)CCC5)CC4C3)nc21 (configuration not stated) | 51.4
12 | Cn1c(=O)n(CC(C)(C)C)c2ccc(C3=CC4CCC3CN4C(=O)c3cccnc3)nc21 (configuration not stated) | 299
